Reference: patent EP0052964A1, “Adenine derivatives possessing pharmacological activity” (BEECHAM GROUP PLC, priority 1980, dated 1982)

System: male rats (Sprague-Dawley from Tuck's)
Assay: hypocholesterolaemic and hypotriglyceridaemic effects in rats fed a sucrose-rich semisynthetic diet containing 0.25% cholesterol
Assay type: in vivo
Conditions: percentage change from control values, compound at 0.1% in diet for 7 days
Protocol: The hypocholesterolaemic and hypotriglyceridaemic effects of 6-amino-9-[(2-hydroxy-3-thiomorpholino)propyl]purine (Compound 1) and 6-amino-9-([2-hydroxy-3-(2,6-cis-dimethylmorpholino)]propyl)-purine (Compound 2) were assessed as follows.
Groups of 8 male rats (Sprague-Dawley from Tuck's) weighing 80-100g were adapted to a sucrose-rich semisynthetic diet containing 0.25% cholesterol by progressive dilution over 7 days of a powdered commercially available diet (Oxoid). Compounds were then added to the semisynthetic diet at the level of 0.1% and these diets were fed for 7 days. The rats were then killed and the serum total cholesterol and triglyceride were measured by a Technicon Auto-Analyser. The results are expressed as percentage change from control values.

Liver wt. as % body wt.: +1%
Structure (SMILES): Nc1ncnc2c1ncn2CC(O)CN1CCSCC1 (stereo not drawn) [Compound 1, 6-amino-9-[(2-hydroxy-3-thiomorpholino)propyl]-purine]
Serum Triglyceride (* = statistically significant): -8 percentage
Serum Cholesterol (serum total cholesterol, * = statistically significant): -57* percentage
